Experimental data as given in patent US5510247A, “Centrifugal multiphase systems and method for using the same” (University of Pittsburgh, priority 1993, dated 1996).

Key:
phosphotriesterase [1] = molecular target: T1, phosphotriesterase (Brevundimonas diminuta, UniProt P0A434); test: Batch Michaelis-Menten kinetics of phosphotriesterase with pesticide substrates in Tween 85 reversed micelles and in Tris-HCl buffer; type: biochemical; design: made in house
Procedure: Solutions of micelles were prepared in the following manner: 8 ml isopropanol was added to 13 g Tween 85 and Hexane was added to achieve a mixture of 50 ml. Water or Tris-HCl buffer (0.05M, pH 7.0) and hexane were added to this mixture to yield the desired system. […] Appropriate volumes were mixed to fill 1 ml quartz cuvettes, and the reaction was followed in a spectrophotometer. (Perkin Elmer Lambda 3). Michaelis-Menten kinetic constants (discussed below) were found by non-linear regression analysis of the initial rate data.
Enzymes function as catalysts in solution by lowering the free energy of the transition state in a reaction. Like conventional catalysts, the enzyme facilitates the reaction, but is in no way altered, so that when the reaction is completed, it is available to catalyze the conversion of more substrate molecules. When a single substrate is converted to product, the schematic of the reaction can be written [drawing 2] where S and P are substrate and product, respectively, and ES is an enzyme substrate complex. When the substrate concentration is much higher than the enzyme concentration, the enzyme is said to obey the Michaelis-Menten relationship describing the reaction rate, [formula] where (E) is the total enzyme concentration and (S) is the initial substrate concentration. KM is the saturation constant, and is a function of the individual rate constants, [formula] KM has the physical meaning as the substrate concentration which yields half the maximal reaction rate (Vmax), which is dependent on the catalytic rate constant of the chemcial step, k2, as well as the enzyme concentration,
Initial experiments were performed using paraoxon, parathion and methyl paraoxon. The effect of micelle size, pH, ionic strength and temperature have been investigated.

phosphotriesterase [2] = molecular target: T1, phosphotriesterase; test: Enzyme activity for paraoxon degradation and enzyme partitioning in the two-phase organic/reverse micelle system (Tween rich heavy phase, excess hexane phase); type: biochemical; design: made in house; conditions: Tween rich heavy phase of the organic/reverse micelle two-phase system
Description: As set forth above, if the products of the reaction are more soluble in the organic phase than in an aqueous phase, it is preferable to choose a system with an excess of organic phase to facilitate product removal. Such a region can be found, for example, in FIG. 2C in the lower left hand corner of the phase diagram. This region is illustrated in FIG. 12 as the shaded area.
In this region, close to the single phase region, reverse micelles form with an excess hexane phase which has a low concentration (<15 mM) of Tween with adsorbed water.

phosphotriesterase [3] = molecular target: T1, phosphotriesterase
[4] = Tris-HCl buffer, 10% Methanol added to enhance solubility

Compound: COP(=O)(OC)Oc1ccc([N+](=O)[O-])cc1 [METHYL PARAOXON, methyl paraoxon]
- Km (phosphotriesterase [1]; Tris-HCl buffer): 0.146 mM
- Vmax (phosphotriesterase [1]; Tris-HCl buffer): 2293 µmol/mg/min
- kcat (phosphotriesterase [1]; Tris-HCl buffer): 1509 s⁻¹
- kcat /KM (phosphotriesterase [1]; Tris-HCl buffer): 10,340 mM^-1 s^-1
- Km (phosphotriesterase [1]; micelles, Wo 5.5): 17.2 ± 3.2 mM
- Vmax (phosphotriesterase [1]; micelles, Wo 5.5): 26.5 ± 2.8 µmol/mg/min
- kcat (phosphotriesterase [1]; micelles, Wo 5.5): 17 s⁻¹
- kcat /KM (phosphotriesterase [1]; micelles, Wo 5.5): 1.0 mM⁻¹ s⁻¹
- Km (phosphotriesterase [1]; micelles, Wo 28): 15.6 ± 2 mM
- Vmax (phosphotriesterase [1]; micelles, Wo 28): 43.2 ± 2.4 µmol/mg/min
- kcat (phosphotriesterase [1]; micelles, Wo 28): 28 s⁻¹
- kcat /KM (phosphotriesterase [1]; micelles, Wo 28): 1.182 mM⁻¹ s⁻¹
- Km (phosphotriesterase [1]; micelles, Wo 46): 15.3 ± 1.9 mM
- Vmax (phosphotriesterase [1]; micelles, Wo 46): 53.1 ± 3.0 µmol/mg/min
- kcat (phosphotriesterase [1]; micelles, Wo 46): 35 s⁻¹
- kcat /KM (phosphotriesterase [1]; micelles, Wo 46): 2.28 mM⁻¹ s⁻¹
- Km (phosphotriesterase [1]; micelles, Wo 66): 37.2 ± 11 mM
- Vmax (phosphotriesterase [1]; micelles, Wo 66): 192 ± 37 µmol/mg/min
- kcat (phosphotriesterase [1]; micelles, Wo 66): 126 s⁻¹
- kcat /KM (phosphotriesterase [1]; micelles, Wo 66): 3.35 mM⁻¹ s⁻¹
- Km (phosphotriesterase [1]; micelles, Wo 82): 32.9 ± 8.9 mM
- Vmax (phosphotriesterase [1]; micelles, Wo 82): 225 ± 38 µmol/mg/min
- kcat (phosphotriesterase [1]; micelles, Wo 82): 148 s⁻¹
- kcat /KM (phosphotriesterase [1]; micelles, Wo 82): 4.5 mM⁻¹ s⁻¹
- Km (phosphotriesterase [1]; micelles, Wo 122): 50 ± 19 mM
- Vmax (phosphotriesterase [1]; micelles, Wo 122): 397 ± 111 µmol/mg/min
- kcat (phosphotriesterase [1]; micelles, Wo 122): 261 s⁻¹
- kcat /KM (phosphotriesterase [1]; micelles, Wo 122): 5.2 mM⁻¹ s⁻¹

Compound: CCOP(=O)(OCC)Oc1ccc([N+](=O)[O-])cc1 [PARAOXON, Paraoxon]
- Vmax (phosphotriesterase [1]; Tris-HCl buffer): 1.686 ± 42 µmol/mg/min
- kcat (phosphotriesterase [1]; Tris-HCl buffer): 1,110 ± 28 s^-1
- kcat /KM (phosphotriesterase [1]; Tris-HCl buffer): 58,421 mM^-1 s^-1
- Km (phosphotriesterase [1]; micelles, Wo 6.9): 14.3 ± 3.4 mM
- Vmax (phosphotriesterase [1]; micelles, Wo 6.9): 107 ± 12 µmol/mg/min
- kcat (phosphotriesterase [1]; micelles, Wo 6.9): 70.3 ± 7.9 s⁻¹
- kcat /KM (phosphotriesterase [1]; micelles, Wo 6.9): 4.9 mM⁻¹ s⁻¹
- Km (phosphotriesterase [1]; micelles, Wo 30): 28.9 ± 3.8 mM
- Vmax (phosphotriesterase [1]; micelles, Wo 30): 430 ± 28 µmol/mg/min
- kcat (phosphotriesterase [1]; micelles, Wo 30): 283 ± 18.4 s⁻¹
- kcat /KM (phosphotriesterase [1]; micelles, Wo 30): 9.8 mM⁻¹ s⁻¹
- Km (phosphotriesterase [1]; micelles, Wo 45): 31.2 ± 8.2 mM
- Vmax (phosphotriesterase [1]; micelles, Wo 45): 556 ± 80 µmol/mg/min
- kcat (phosphotriesterase [1]; micelles, Wo 45): 366 ± 53 s⁻¹
- kcat /KM (phosphotriesterase [1]; micelles, Wo 45): 11.8 mM⁻¹ s⁻¹
- Km (phosphotriesterase [1]; micelles, Wo 69): 34.8 ± 9 mM
- Vmax (phosphotriesterase [1]; micelles, Wo 69): 992 ± 149 µmol/mg/min
- kcat (phosphotriesterase [1]; micelles, Wo 69): 653 ± 98 s⁻¹
- kcat /KM (phosphotriesterase [1]; micelles, Wo 69): 18.8 mM⁻¹ s⁻¹
- Km (phosphotriesterase [1]; micelles, Wo 86): 33.3 ± 6.7 mM
- kcat (phosphotriesterase [1]; micelles, Wo 86): 789 ± 86 s⁻¹
- kcat /KM (phosphotriesterase [1]; micelles, Wo 86): 23.7 mM⁻¹ s⁻¹
- Km (phosphotriesterase [1]; micelles, Wo 125): 29.5 ± 8.3 mM
- Vmax (phosphotriesterase [1]; micelles, Wo 125): 1.753 ± 259 µmol/mg/min
- kcat (phosphotriesterase [1]; micelles, Wo 125): 1150 ± 170 s⁻¹
- kcat /KM (phosphotriesterase [1]; micelles, Wo 125): 39.1 mM⁻¹ s⁻¹
- Km (phosphotriesterase [2]): 32 mM
- kcat (phosphotriesterase [2]): 975 s⁻¹

Compound: CCOP(=S)(OCC)Oc1ccc([N+](=O)[O-])cc1 [PARATHION, Parathion]
- Km (phosphotriesterase [1]; [4]): 0.35 ± 0.08 mM
- Vmax (phosphotriesterase [1]; [4]): 2850 ± 540 µmol/mg/min
- kcat (phosphotriesterase [1]; [4]): 1870 ± 360 s⁻¹
- kcat /KM (phosphotriesterase [1]; [4]): 5,340 mM^-1 s^-1
- Km (phosphotriesterase [1]; micelles, Wo 6): 81 ± 16 mM
- Vmax (phosphotriesterase [1]; micelles, Wo 6): 1.37 ± 0.15 µmol/mg/min
- kcat (phosphotriesterase [1]; micelles, Wo 6): 0.90 ± 0.10 s⁻¹
- kcat /KM (phosphotriesterase [1]; micelles, Wo 6): 0.011 mM⁻¹ s⁻¹
- Vmax (phosphotriesterase [1]; micelles, Wo 29): 9.7 ± 1.4 µmol/mg/min
- kcat (phosphotriesterase [1]; micelles, Wo 29): 6.4 ± 0.9 s⁻¹
- kcat /KM (phosphotriesterase [1]; micelles, Wo 29): 0.054 mM⁻¹ s⁻¹
- Vmax (phosphotriesterase [1]; micelles, Wo 45): 14.7 ± 2.4 µmol/mg/min
- kcat (phosphotriesterase [1]; micelles, Wo 45): 9.7 ± 1.6 s⁻¹
- kcat /KM (phosphotriesterase [1]; micelles, Wo 45): 0.074 mM⁻¹ s⁻¹
- Vmax (phosphotriesterase [1]; micelles, Wo 70): 28 ± 17 µmol/mg/min
- kcat (phosphotriesterase [1]; micelles, Wo 70): 18 ± 11 s⁻¹
- kcat /KM (phosphotriesterase [1]; micelles, Wo 70): 0.082 mM⁻¹ s⁻¹
- Vmax (phosphotriesterase [1]; micelles, Wo 85): 52 ± 28 µmol/mg/min
- kcat (phosphotriesterase [1]; micelles, Wo 85): 34 ± 18 s⁻¹
- kcat /KM (phosphotriesterase [1]; micelles, Wo 85): 0.082 mM⁻¹ s⁻¹

Compound: OCCO [ethylene glycol]
- effect on enzyme activity (phosphotriesterase [3]; micelles prepared with it as a cosurfactant): enhanced enzyme activity

Compound: CC(C)O [isopropanol]
- effect on activity of phosphotriesterase (phosphotriesterase [3]; in buffer): reduce the activity
